# How the values were obtained:
# human NLRP3 [1] = biological target: T1, human NLRP3 (Homo sapiens, UniProt Q96P20); test: Scintillation Proximity (SPA) NLRP3 Assay, displacement of 3H-MCC950; assay type: binding; details: for IC50: displacement of 3H-MCC950 from human NLRP3
# Method in brief: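 Human NLRP3 (350 nM) preincubated 15 min at RT with compound (5% DMSO final) in HEPES pH 7.5 buffer with 100 μM ADP, then 125 nM 3H-MCC950 added for 60 min. Copper PVT SPA beads added; counts read 6 h later. Specific binding = signal minus no-protein wells, duplicates averaged; IC50 reported.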
# human NLRP3 [2] = biological target: T1, human NLRP3; test: Human Whole Blood (hWB) NLRP3 Assay (LPS/ATP, IL-1β); assay type: cell-based; design: host or cells: human whole blood from healthy volunteers (A3)
# Description: Human whole blood is drawn from healthy volunteers after obtaining written informed consent. Heparin lithium coated tubes are used to collect blood from volunteers. Blood samples are distributed on 96 well plates using 90 μl per well.
# Priming procedure: Priming is performed by adding 5 μl of LPS (O26:B6; Sigma L-2654) at a final concentration of 1 μg/ml for 4.5 hours in a humidified incubator with 37° C., 5% CO2. Thirty minutes prior to NLRP3 activation, 5 μl of a 20× compound solution or vehicle (2% dimethylsulfoxide (DMSO)) is added to each well and plates were incubated on a shaker (450 rpm) in a humidified incubator with 37° C., 5% CO2.
# Alternative priming procedure: Thirty minutes prior to LPS priming, 5 μl of a 20× compound solution or vehicle (2% dimethylsulfoxide (DMSO)) is added to each well and plates were incubated on a shaker (450 rpm) in a humidified incubator with 37° C., 5% CO2. Priming is performed by adding 5 μl of LPS (O26:B6; Sigma L-2654) at a final concentration of 1 μg/ml for 5 hours in a humidified incubator with 37° C., 5% CO2.
# Activation is then performed by adding 3.3 μl of a 31×ATP solution per well. At the end of the 30 minutes stimulation, the plates are centrifuged (800 g, 10 min, room temperature) and the plasma from each well is frozen at −80° C. IL-1β levels in the supernatant were analyzed using a mesoscale discovery assay (MSD K151TUK) according to the manufacturers' instructions.
# There is no detectable difference in assay results using the priming procedure versus the alternative priming procedure.
# hWB NLRP3 IC50 assay results, as a measurement of whole blood potency, are provided in Table B. “A” activity=<1 uM; “B” activity=1-2 uM; “C” activity=>2-3 uM; “D” activity=>3 uM.
# human NLRP3 [3] = biological target: T1, human NLRP3; test: Human PBMC NLRP3 Assay (LPS priming, ATP stimulation, cytokine measurement); assay type: cell-based; design: host or cells: human PBMCs (A2); human whole blood from healthy volunteers (A3); details: human PBMC, LPS + ATP
# Description: Reagents: Human PBMCs (Normal): iXCells Cat #10HU-003; RPMI 1640 medium with GlutaMAX: ThermoFisher Cat #61870127 (Complete Media: 4.5 g/L D-glucose, 10% FBS, 100 mM NaPyr, 1% Pen/Strep, 10 mM HEPES and 0.05 mM of ®-mercaptoethanol; Assay Media: 4.5 g/L D-glucose, 100 mM NaPyr, 1% Pen/Strep, 10 mM HEPES and 0.05 mM of mercaptoethanol; 96-well V-bottom Plates: Costar Cat #3894; LPS (E. coli O26:B6): Sigma Cat #L2654, stock 5 mg/mL in PBS; ATP: Sigma Cat #A6419, prepared in a 250 mM stock in 1 M HEPES (adjusted to pH 7.4).
# Cryopreserved PBMCs were rapidly thawed in a 37° C. water bath for 2 min. Cells were then centrifuged at 1200 RPM for 5 min and resuspended in ˜50 mL of fresh RPMI 1640 Complete Medium. A count was undertaken using a hemocytometer and adjusted to 2.5×10^5 cells/mL. V-shaped 96-well plates were seeded with 200 μL of PBMCs (5×10^4) per well and subsequently incubated overnight at 37° C. with 5% CO2. Assay Media was then prepared containing 100 ng/ml of LPS. PBMCs were then centrifuged at 1,200 RPM for 5 min, serum containing media was aspirated, and 150 μL/well of Assay Media+LPS was immediately added. Assay Media without LPS was added in the untreated control wells. Cells were then primed with LPS for 4 h at 37° C. with 5% CO2. A concentration response curve (CRC) was prepared of 1000× test compound in 100% DMSO. The CRC was then diluted 1:50 in Assay Media and then further diluted by 1:5× in Assay Media resulting in a final 4×CRC in 0.4% DMSO/Assay Media. 50 μL/well of 4× test compound CRC or vehicle (0.4% DMSO/Assay Media) was then transferred into each well and subsequently incubated for 30 min at 37° C. with 5% CO2. Cells were stimulated by adding 4 μL of 250 mM ATP, using a 250 mM stock prepared in 1 M Hepes without further dilution (for a final concentration of 5 mM), for 1 h at 37° C. with 5% CO2 Plates were then centrifuged at 1200 RPM for 5 min; and 50 μl of the media was transferred to a clean 96-well storage plate for cytokine measurements using the mesoscale platform, and stored at −80° C. until analyzed. Compounds were added 30 minutes before priming the cells with LPS when TNFα was required to be quantified in the cytokine panel to confirm selectivity.
# PBMC NLRP3 IC50 assay results, as a measurement of cellular potency, are provided in Table B. “A” activity=<0.01 uM; “B” activity=0.01-0.1 uM; “C” activity=>0.1-0.5 uM; “D” activity=>0.5 uM.
# T1 sequence (Q96P20 whole entry): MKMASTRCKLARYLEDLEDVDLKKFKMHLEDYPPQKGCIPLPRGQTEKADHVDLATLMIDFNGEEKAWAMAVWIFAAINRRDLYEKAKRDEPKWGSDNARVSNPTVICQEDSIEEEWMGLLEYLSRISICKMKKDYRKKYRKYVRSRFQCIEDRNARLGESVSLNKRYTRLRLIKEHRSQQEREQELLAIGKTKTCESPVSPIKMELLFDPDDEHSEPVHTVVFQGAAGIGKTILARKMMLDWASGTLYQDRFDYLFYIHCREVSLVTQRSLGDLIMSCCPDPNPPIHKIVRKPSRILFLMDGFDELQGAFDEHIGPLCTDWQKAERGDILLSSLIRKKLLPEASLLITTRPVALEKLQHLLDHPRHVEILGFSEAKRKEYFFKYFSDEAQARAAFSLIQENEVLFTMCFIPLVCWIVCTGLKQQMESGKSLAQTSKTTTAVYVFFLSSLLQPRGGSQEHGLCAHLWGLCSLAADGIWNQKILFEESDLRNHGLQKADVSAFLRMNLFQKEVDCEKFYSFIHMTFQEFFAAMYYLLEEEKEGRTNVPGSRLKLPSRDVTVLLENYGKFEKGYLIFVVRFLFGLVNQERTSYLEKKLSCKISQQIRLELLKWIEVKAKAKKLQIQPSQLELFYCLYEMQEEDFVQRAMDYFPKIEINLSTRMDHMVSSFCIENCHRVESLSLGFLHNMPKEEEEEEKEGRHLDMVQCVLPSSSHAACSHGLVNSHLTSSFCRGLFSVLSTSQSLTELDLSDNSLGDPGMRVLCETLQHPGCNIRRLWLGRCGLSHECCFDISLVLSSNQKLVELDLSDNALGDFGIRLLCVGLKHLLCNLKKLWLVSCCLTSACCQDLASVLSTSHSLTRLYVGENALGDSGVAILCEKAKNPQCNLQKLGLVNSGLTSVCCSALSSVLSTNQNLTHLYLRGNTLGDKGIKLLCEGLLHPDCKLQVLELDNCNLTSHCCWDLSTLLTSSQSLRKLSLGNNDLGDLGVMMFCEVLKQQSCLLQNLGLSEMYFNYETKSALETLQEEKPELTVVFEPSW
SMILES,"IC50 (human NLRP3 [1]; Table B, activity class)","IC50 (human NLRP3 [2]; Table B, activity class)","IC50 (human NLRP3 [3]; Table B, activity class)",IC50 (human NLRP3 [1]; Table C),IC50 (human NLRP3 [2]; Table C),IC50 (human NLRP3 [3]; Table C),fold improvement in binding activity (SPA IC50) (human NLRP3 [1]; relative to Compound 27A*),fold increase in binding activity (SPA IC50) (human NLRP3 [1]; relative to Compound 39A)
"C[C@@H]1CCN(c2nnn[nH]2)C[C@H](NC(=O)N(C)c2ccc(C(F)(F)F)c(F)c2F)C1 (single isomer, unassigned) [21A*]",< 1 µM,< 1 µM,0.01 to 0.1 µM,–,–,–,–,–
"C[C@@H]1CCN(c2nnn[nH]2)C[C@H](NC(=O)N(CC2CC2)c2ccc(OC(F)(F)F)cc2)C1 (single isomer, unassigned) [44A*]",< 1 µM,2 to 3 µM,–,–,–,–,–,–
"C[C@@H]1CCN(c2nnn[nH]2)C[C@H](NC(=O)N(C)c2ccc(OC(F)(F)F)cc2F)C1 (single isomer, unassigned) [24A*]",< 1 µM,< 1 µM,< 0.01 µM,0.11 µM,0.26 µM,0.0079 µM,–,–
"C[C@@H]1CCN(c2nnn[nH]2)C[C@H](NC(=O)N(C)c2ccc(Cl)cc2F)C1 (single isomer, unassigned) [5A*]",< 1 µM,< 1 µM,< 0.01 µM,0.071 µM,0.036 µM,0.004 µM,> 19 fold,–
"C[C@@H]1CCN(c2nnn[nH]2)C[C@H](NC(=O)N(C)c2ccc(C(F)(F)F)cc2F)C1 (single isomer, unassigned) [13A*]",< 1 µM,< 1 µM,< 0.01 µM,0.55 µM,0.2 µM,0.0056 µM,–,–
"C[C@@H]1CCN(c2nnn[nH]2)C[C@H](NC(=O)N(C)c2ccc(OC(F)F)c(F)c2)C1 (single isomer, unassigned) [15A*]",< 1 µM,< 1 µM,< 0.01 µM,–,–,–,–,–
"C[C@@H]1CCN(c2nnn[nH]2)C[C@H](NC(=O)N(C)c2ccc(C3CC3)c(F)c2)C1 (single isomer, unassigned) [23A*]",< 1 µM,< 1 µM,< 0.01 µM,–,–,–,–,–
"C[C@@H]1C[C@@H](NC(=O)N(C)c2ccc(C3CC3)cc2)[C@H]2CC[C@@H]1N2c1nnn[nH]1 (single isomer, unassigned) [46A*]",< 1 µM,< 1 µM,< 0.01 µM,–,–,–,–,–
"C[C@@H]1C[C@@H](NC(=O)N(C)c2ccc(OC(F)F)cc2)[C@H]2CC[C@@H]1N2c1nnn[nH]1 (single isomer, unassigned) [42A*]",< 1 µM,< 1 µM,< 0.01 µM,0.065 µM,0.29 µM,0.0041 µM,–,–
"C[C@@H]1C[C@@H](NC(=O)N(C)c2ccc(C(F)F)cc2F)[C@H]2CC[C@@H]1N2c1nnn[nH]1 (single isomer, unassigned) [55A*]",< 1 µM,< 1 µM,–,–,–,–,–,–
"C[C@@H]1C[C@@H](NC(=O)N(C)c2ccc(OC(F)F)cc2F)[C@H]2CC[C@@H]1N2c1nnn[nH]1 (single isomer, unassigned) [57A*]",< 1 µM,< 1 µM,< 0.01 µM,0.199 µM,0.19 µM,0.0031 µM,–,–
"C[C@@H]1CCN(c2nnn[nH]2)C[C@H](NC(=O)N(C)c2ccc(OC(F)(F)F)c(F)c2F)C1 (single isomer, unassigned) [26A*]",< 1 µM,> 3 µM,0.01 to 0.1 µM,–,–,–,–,–
"C[C@@H]1C[C@@H](NC(=O)N(C)c2ccc(OC(F)F)c(F)c2)[C@H]2CC[C@@H]1N2c1nnn[nH]1 (single isomer, unassigned) [52A*]",< 1 µM,< 1 µM,0.01 to 0.1 µM,–,–,–,–,–
"C[C@@H]1CCN(c2nnn[nH]2)C[C@H](NC(=O)N(C)c2ccc(OC(F)(F)F)c(OC(F)F)c2)C1 (single isomer, unassigned) [25A*]",< 1 µM,1 to 2 µM,–,–,–,–,–,–
"C[C@@H]1C[C@@H](NC(=O)N(C)c2ccc(OC(F)(F)F)cc2)[C@H]2CC[C@@H]1N2c1nnn[nH]1 (single isomer, unassigned) [45A*]",–,< 1 µM,–,0.11 µM,0.42 µM,–,–,> 12 fold
"C[C@@H]1C[C@@H](NC(=O)N(C)c2ccc(OC(F)(F)F)c(OC(F)F)c2)[C@H]2CC[C@@H]1N2c1nnn[nH]1 (single isomer, unassigned) [63A*]",< 1 µM,2 to 3 µM,–,–,–,–,–,–
"C[C@@H]1C[C@@H](NC(=O)N(C)c2ccc(C(F)(F)F)cc2F)[C@H]2CC[C@@H]1N2c1nnn[nH]1 (single isomer, unassigned) [48A*]",< 1 µM,< 1 µM,–,–,–,–,–,–
"C[C@@H]1C[C@@H](NC(=O)N(C)c2ccc(OC(F)(F)F)c(F)c2)[C@H]2CC[C@@H]1N2c1nnn[nH]1 (single isomer, unassigned) [51A*]",< 1 µM,1 to 2 µM,–,–,–,–,–,–
"C[C@@H]1C[C@@H](NC(=O)N(C)c2ccc(C(F)(F)F)c(F)c2F)[C@H]2CC[C@@H]1N2c1nnn[nH]1 (single isomer, unassigned) [47A*]",< 1 µM,1 to 2 µM,–,–,–,–,–,–
"C[C@@H]1CCN(c2nnn[nH]2)C[C@H](NC(=O)N(C)c2ccc(C(F)F)c(F)c2)C1 (single isomer, unassigned) [22A*]",< 1 µM,1 to 2 µM,–,–,–,–,–,–
"C[C@@H]1CCN(c2nnn[nH]2)C[C@H](NC(=O)N(C)c2cnc(C(F)(F)F)cn2)C1 (single isomer, unassigned) [32A*]",10 to 50 µM,> 3 µM,–,–,–,–,–,–
"CCN(C(=O)N[C@@H]1C[C@@H](C)[C@@H]2CC[C@H]1N2c1nnn[nH]1)c1ccc(OC(F)F)cc1F (single isomer, unassigned) [65A*]",< 1 µM,< 1 µM,–,–,–,–,–,–

# Source: US20260008768A1, “UREA DERIVATIVES FOR INHIBITING NLRP3 AND USES THEREOF” (VENTUS THERAPEUTICS U.S., INC., priority 2023, published 2026)
